ChEMBL document CHEMBL1133150, “N-formyl hydroxylamine containing dipeptides: generation of a new class of vasopeptidase inhibitors” (Bioorg Med Chem Lett, 2000)

Tests used:
[1] = target: T1, Angiotensin-converting enzyme (Oryctolagus cuniculus, UniProt P12822); experiment: Inhibition of Angiotensin I converting enzyme
T1 sequence (P12822 whole entry): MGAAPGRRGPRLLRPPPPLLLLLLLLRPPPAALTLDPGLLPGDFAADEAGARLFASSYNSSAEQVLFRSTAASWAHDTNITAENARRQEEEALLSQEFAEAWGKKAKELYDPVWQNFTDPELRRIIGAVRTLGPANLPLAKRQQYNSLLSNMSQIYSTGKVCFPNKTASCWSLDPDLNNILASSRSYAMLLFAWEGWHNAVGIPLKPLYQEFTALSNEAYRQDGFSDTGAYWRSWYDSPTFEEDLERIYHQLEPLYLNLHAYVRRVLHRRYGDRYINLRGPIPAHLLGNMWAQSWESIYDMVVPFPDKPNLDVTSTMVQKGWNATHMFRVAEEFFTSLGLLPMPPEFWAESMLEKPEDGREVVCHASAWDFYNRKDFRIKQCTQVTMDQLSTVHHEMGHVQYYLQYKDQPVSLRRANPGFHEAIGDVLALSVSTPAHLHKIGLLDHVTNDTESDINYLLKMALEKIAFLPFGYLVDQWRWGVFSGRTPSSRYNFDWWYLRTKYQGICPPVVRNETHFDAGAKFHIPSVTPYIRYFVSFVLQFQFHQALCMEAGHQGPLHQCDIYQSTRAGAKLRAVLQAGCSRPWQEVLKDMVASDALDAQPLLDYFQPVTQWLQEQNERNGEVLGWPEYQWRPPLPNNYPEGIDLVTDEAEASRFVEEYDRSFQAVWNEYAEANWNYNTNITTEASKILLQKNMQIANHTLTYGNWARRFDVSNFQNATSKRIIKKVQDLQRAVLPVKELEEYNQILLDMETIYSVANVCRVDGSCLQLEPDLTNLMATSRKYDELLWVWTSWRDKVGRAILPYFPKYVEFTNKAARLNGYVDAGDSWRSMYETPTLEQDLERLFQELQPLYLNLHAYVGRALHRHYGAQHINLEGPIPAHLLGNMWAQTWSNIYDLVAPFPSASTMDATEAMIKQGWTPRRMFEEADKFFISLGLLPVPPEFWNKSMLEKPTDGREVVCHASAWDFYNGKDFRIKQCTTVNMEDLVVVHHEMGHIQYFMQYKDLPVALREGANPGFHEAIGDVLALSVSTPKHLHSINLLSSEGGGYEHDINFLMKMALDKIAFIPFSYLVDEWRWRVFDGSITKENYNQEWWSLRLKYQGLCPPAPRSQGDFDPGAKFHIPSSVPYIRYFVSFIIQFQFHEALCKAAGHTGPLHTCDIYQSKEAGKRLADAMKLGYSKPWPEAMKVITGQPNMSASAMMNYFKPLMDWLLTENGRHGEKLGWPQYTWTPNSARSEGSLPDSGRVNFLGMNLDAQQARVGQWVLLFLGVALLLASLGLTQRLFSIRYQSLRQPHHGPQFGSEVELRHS

Neprilysin = target: T2, Neprilysin (Rattus norvegicus, UniProt P07861); experiment: Inhibition of Neutral endopeptidase
T2 sequence (P07861 whole entry): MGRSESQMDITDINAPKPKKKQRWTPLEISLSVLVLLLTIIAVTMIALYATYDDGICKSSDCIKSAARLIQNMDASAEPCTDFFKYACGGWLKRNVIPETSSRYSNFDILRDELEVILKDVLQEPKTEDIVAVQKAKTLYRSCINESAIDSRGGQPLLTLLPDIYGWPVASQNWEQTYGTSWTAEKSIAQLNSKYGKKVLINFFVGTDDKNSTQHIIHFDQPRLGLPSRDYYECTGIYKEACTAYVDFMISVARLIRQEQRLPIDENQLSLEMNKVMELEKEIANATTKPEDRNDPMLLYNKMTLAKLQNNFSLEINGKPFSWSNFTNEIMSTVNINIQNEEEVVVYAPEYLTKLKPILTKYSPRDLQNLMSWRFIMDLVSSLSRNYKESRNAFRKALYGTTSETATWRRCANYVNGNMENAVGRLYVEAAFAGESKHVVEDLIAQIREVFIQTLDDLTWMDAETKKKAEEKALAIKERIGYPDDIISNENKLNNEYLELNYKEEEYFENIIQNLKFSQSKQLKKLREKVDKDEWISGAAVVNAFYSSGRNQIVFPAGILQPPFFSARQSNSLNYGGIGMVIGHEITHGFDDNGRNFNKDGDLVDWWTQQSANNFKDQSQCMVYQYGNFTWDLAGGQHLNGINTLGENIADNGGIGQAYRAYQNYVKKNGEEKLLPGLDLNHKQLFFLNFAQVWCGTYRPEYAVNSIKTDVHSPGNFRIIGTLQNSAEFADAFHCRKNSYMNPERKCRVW

| Structure (SMILES) | IC50 [1] [µM] | IC50 (Neprilysin) [µM] |
| --- | --- | --- |
| O=CN(O)C[C@@H](Cc1ccccc1)C(=O)N[C@H]1Cc2ccccc2[C@H]2CCC[C@@H](C(=O)O)N2C1=O | 0.0034 | 0.0018 |
| CC(C)C[C@H](NC(=O)[C@H](Cc1ccccc1)N(O)C=O)C(=O)N[C@@H](Cc1ccccc1)C(=O)O | 228 | 93 |
| CC(C)C[C@H](NC(=O)C(Cc1ccccc1)CN(O)C=O)C(=O)N[C@@H](Cc1ccccc1)C(=O)O (stereo not given in full) | 0.106 | 1.27 |
| CC(C)C[C@H](NC(=O)C(Cc1ccccc1)CN(O)C(N)=O)C(=O)N[C@@H](Cc1ccccc1)C(=O)O (stereo not given in full) | 529 | 705 |
| CC(=O)N(O)CC(Cc1ccccc1)C(=O)N[C@@H](CC(C)C)C(=O)N[C@@H](Cc1ccccc1)C(=O)O (stereo not given in full) | 461 | 214 |
| CC1(C)CCC[C@H](NC(=O)[C@H](Cc2ccccc2)CN(O)C=O)C(=O)N1CC(=O)O | 0.0054 | 0.018 |
| CC(C)[C@H](NCP(=O)(O)O)C(=O)N[C@@H](Cc1ccc(-c2ccccc2)cc1)C(=O)O | 0.025 | 0.003 |
| O=CN(O)C[C@@H](Cc1ccccc1)C(=O)N[C@H]1CCc2ccccc2N(CC(=O)O)C1=O | 0.0053 | 0.0013 |
| O=C(N[C@H]1CCS[C@H]2CCC[C@@H](C(=O)O)N2C1=O)[C@@H](S)Cc1ccccc1 [OMAPATRILAT] | 0.006 | 0.009 |
| CS(=O)(=O)N[C@@H](CCCCN)C(=O)NC[C@H](CC1(C(=O)N[C@@H](Cc2ccc(O)cc2)C(=O)O)CCCC1)C(=O)O [SAMPATRILAT] | 0.007 | 0.02 |
